Measurements from patent publication US5688805A, “Tricyclic derivatives, compositions and methods of use” (Schering Corporation, priority 1995, dated 1997).

Columns and labels:
[1] = tested on: LPS/Galactosamine-Induced Lethality; assay: In Vivo Study: Inhibition of LPS/Galactosamine-Induced Lethality; parameters: species or system Mice (C57BI/6J males); conditions: 25 mg/kg orally or i.p. one hour before LPS (100 ng) and d-galactosamine (8 mg) i.p.; survival at 24 hours
Method: This test procedure is a standard test used to determine activity against septic shock.
3. In Vivo Study: Inhibition of LPS/Galactosamine-Induced Lethality
Mice (C57BI/6J males, 6-8 weeks of age) are dosed with the indicated compound (dissolved in CMC suspension vehicle; compounds are given orally or i.p. one hour before challenge with LPS and d-galactosamine).
Mice are challenged i.p. with a mixture of LPS (from E. coli 0111:B4; 100 ng) and d-galactosamine (8 mg).
Survival is determined 24 hours after challenge. See procedure

TNF = assay: In Vivo Study: Inhibition of LPS-Induced Serum TNF; parameters: species or system Mice (C57BI/6J males); conditions: Mus musculus, 1.5 h; 25 mg/kg orally or i.p. one hour before LPS (50 μg i.p.); bled 90 min after LPS; serum TNF by ELISA
Method: In addition to the in vitro test described above, the following in vivo test was also performed on several of the compounds of the present invention.
2. In Vivo Study: Inhibition of LPS-Induced Serum TNF
1) Mice (C57BI/6J males, 6-8 weeks of age) are dosed with the indicated compound (dissolved in CMC suspension vehicle; compounds are given orally or i.p. one hour before LPS challenge).
3) Mice are bled 90 min after LPS challenge.
4) Sera are analyzed for TNF content by ELISA as described in J. Immunol.

TNF-α = assay: In Vitro Study: Inhibition of LPS-Induced TNF-α Production From the Murine Cell Line WEHI-265; type: cell-based; conditions: for inhibition at 10 µM: Mus musculus, WEHI-265 cells, LPS, 20-24 hours
Method: This test procedure is a standard test used to determine anti-TNF-α activity and to evaluate the usefulness of said compounds for counteracting the biological effects of TNF-α.
In Vitro Study: Inhibition of LPS-Induced TNF-α Production From the Murine Cell Line WEHI-265
1) Cells (obtained from cell cultures containing ≤10^6 cells/ml) are suspended at 0.2×10^6 cells/ml in complete medium (RPMI1640, with 10% FCS, 10^-5 M 2-ME, 2 mM glutamine and 10 mM HEPES buffer) and plated in CoStar 24 well plates (1.0 ml/well).
2) Compounds are dissolved in the appropriate vehicle at 400 times the concentration to be tested, and 5 μl of compound is added to the wells.
3) LPS (from E. coli 0111:B4) is diluted to 6 μg/ml and 1.0 ml is added to wells.
4) Plates are incubated 20-24 hours in 37° C. CO2 incubator.
5) Supernatant fluids are collected and analyzed for TNF content as described in J. lmmunol., 142:3884.

Row | SMILES | # DEAD/TOTAL AT 25 MG/KG [1] | inhibition in vivo at 25 mg/kg (TNF) [%] | inhibition at 10 µM (TNF-α) [%] | anti-TNF-α activity (in words) (TNF-α; general statement)
1 | C=CCC1(C2=CCN(C)CC2)c2ccccc2CCc2ccccc21 [Compound IB, 4-[10,11-dihydro-5-(2-propenyl)-5H-dibenzo[a,d]cyclohepten-5-yl]-1-methyl-1,2,5,6-tetrahydropyridine] | 0/8 | 80 | 70 | 
2 | c1ccc2c(c1)CCc1ccccc1C2C1CCCNC1 (stereo not drawn) [Compound ID, 3-(10,11-dihydro-5H-dibenzo[a,d]cyclohepten-5-yl)-piperidine acetic acid] |  |  | 51 | 
3 | C=CCC1(C2=CCNCC2)c2ccccc2CCc2ccccc21 [Compound IE, 4-[10,11-dihydro-5-(2-propenyl)-5H-dibenzo[a,d]cyclohepten-5-yl]-1,2,5,6-tetrahydro(1H)-pyridine] | 7/8 |  | 61 | 
4 | CCCC1(C2=CCN(C)CC2)c2ccccc2CCc2ccccc21 [Compound IF, 4-[10,11-dihydro-5-propyl-5H-dibenzo[a,d]cyclohepten-5-yl]-1-methyl-1,2,5,6-tetrahydropyridine] | 5/8 | 50 | 28 | 
5 | C=CCC1(C2=CCN(C(C)=O)CC2)c2ccccc2CCc2ccccc21 [Compound IG, 1-acetyl-4-[10,11-dihydro-5-(2-propenyl)-5H-dibenzo[a,d]cyclohepten-5-yl]-1,2,5,6-tetrahydro-1H-pyridine] |  |  | 27 | 
6 | CCCC1(C2CCN(C)CC2)c2ccccc2CCc2ccccc21 [Compound IJ, 4-[10,11-dihydro-5-propyl-5H-dibenzo[a,d]cyclohepten-5-yl]-1-methylpiperidine] |  |  | 55 | 
7 | CN1CC=C(C2c3ccccc3CCc3ccccc32)CC1 [Compound IL, 4-(10,11-dihydro-5H-dibenzo[a,d]cyclohepten-5-yl)-1-methyl-1,2,5,6-tetrahydropyridine] | 1/9 | 58 | 23 | 
8 | C=CCC1(C2=CC[N+](C)(C)CC2)c2ccccc2CCc2ccccc21.[I-] [Compound IM, 4-[10,11-dihydro-5-(2-propenyl)-5H-dibenzo[a,d]cyclohepten-5-yl]-1,1-dimethyl-1,2,5,6-tetrahydropyridinium iodide] | 2/11 | 27 | 8 | 
9 | C=CCC1(C2=CCN(Cc3ccccc3)CC2)c2ccccc2CCc2ccccc21 [Compound IN, 4-[10,11-dihydro-5-(2-propenyl)-5H-dibenzo[a,d]cyclohepten-5-yl]-1-(phenylmethyl)-1,2,5,6-tetrahydro-1H-pyridine] | 10/10 | 42 | 25 | 
10 | C=CCC1(C2=CCN(C(C)C)CC2)c2ccccc2CCc2ccccc21 [Compound IP] | 6/10 | 28 | 62 | 
11 | CN1CCCC(C2c3ccccc3CCc3ccccc32)C1 (stereo not drawn) [Compound IR, 3-(10,11-dihydro-5H-dibenzo[a,d]cyclohepten-5-yl)-1-methyl-piperidine] |  |  | 60 | 
12 | C[N+]1(C)CC=C(C2c3ccccc3CCc3ccccc32)CC1 [Compound IY, 4-(10,11-dihydro-5H-dibenzo[a,d]cyclohepten-5-yl)-1,1-dimethyl-1,2,5,6-tetrahydropyridinium iodide] |  |  | 12 | 
13 | CN1CCC(C2c3ccccc3CCc3ccccc32)CC1 [Compound K, reference compound] | 0/10 | 82 | 17 | has anti-TNF-α activity
14 | C=CCC1(C2=CCN(C)CC2)c2ccccc2CCc2ccc(Cl)cc21 (stereo not drawn) [IA] |  |  | 80 | 
15 | C=CCC1(C2=CCN(C(=O)OCC)CC2)c2ccccc2CCc2ccccc21 [IC] | 4/8 |  | 20 | 
16 | C=CCC1(C2=CCN(C)CC2)c2ccccc2C=Cc2ccccc21 [IH] | 4/9 | 8 | 6 | 
17 | CN1CC=C(C2(Cc3ccccc3)c3ccccc3CCc3ccccc32)CC1 [IK] | 5/9 | 45 | 61 | 
18 | CC(C)=CCC1(C2=CCN(C)CC2)c2ccccc2CCc2ccccc21 [IQ] | 4/10 | 28 | 62 | 
19 | CN1CC=C(C2(C)c3ccccc3CCc3ccccc32)CC1 [IS] |  | 26 | 61 | 
20 | CC1(C2=CC[N+](C)(C)CC2)c2ccccc2CCc2ccccc21 [IT] |  | 3 | 9 | 
21 | C=CCC1(C2=CCN(C)CC2)c2ccccc2CCc2cccnc21 (stereo not drawn) [IX] | 9/9 | 56 | 38 | 
